Laboratory results: patent US20260184675A1, “CHIRAL ISOMERIC SULFITE COMPOUND AND APPLICATION THEREOF” (Chengdu Hanova BioSciences Co., Ltd, priority 2024, published 2026)

Key:
[1] = tested on: Magnaporthe grisea; assay type: cell-based; settings: 100 ppm
[2] = tested on: pest eggs of Tetranychus cinnabarinus; test: Effect on hatching of pest eggs of Tetranychus cinnabarinus, leaf disc method; assay type: in vivo; settings: for Hatching rate (%): 7 days after insecticide delivery
Outline: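 Adult female mites laid eggs on 2.0 cm Vicia faba leaf discs for up to 36 h; discs with counted eggs were dipped 10 s in compound solution or water, then kept moist. Hatched eggs were counted 7 days after treatment and control effect was calculated by formula.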

[3] = tested on: eggs of Aleyrodidae; test: Effect on hatching of eggs of Aleyrodidae, leaf disc method; assay type: in vivo; settings: Aleyrodidae eggs, 10 ppm
Outline: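 Leaf discs carrying Aleyrodidae eggs were first examined microscopically to record a baseline egg count. They were then dipped for 10 seconds in compound solution at 10 ppm or in clear water, taken out, and incubated with humidity maintained. Five days after delivery, the number of hatched larvae was recorded to assess hatching inhibition.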

[4] = tested on: eggs of Harmonia axyridis; test: Effect on hatching of eggs of Harmonia axyridis, egg card immersion; assay type: in vivo; settings: 100 ppm
Outline: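 Egg cards (~20 eggs each) dipped 30 s in 100 ppm insecticide, air dried and kept moist at 27° C; 5 cards per treatment, 3 replicates. Hatching assessed 4 days after treatment against pre-treatment egg counts, and control effect calculated by formula.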

CC(C)(COS(=O)OCCF)Oc1ccc(Cl)cc1Cl (centres unmarked) [R-10′]
inhibitory rate against Magnaporthe grisea (in words) [1]: strong inhibitory rate | Average antifungal rate (%) ([1]; 96-well plate, average of 3 replicates): 82.60% | Antifungal rate of Magnaporthe grisea (%), Replicate 1 ([1]; 96-well plate, replicate 1): 82.71% | Antifungal rate of Magnaporthe grisea (%), Replicate 2 ([1]; 96-well plate, replicate 2): 81.95% | Antifungal rate of Magnaporthe grisea (%), Replicate 3 ([1]; 96-well plate, replicate 3): 83.14% | Hatching rate (%) ([2]; 0.25 mg/L, Replicate 1): 74.07% | Hatching rate (%) ([2]; 0.25 mg/L, Replicate 2): 76.79% | Number of hatched larvae 7 days after insecticide delivery ([2]; 0.25 mg/L, Replicate 1): 21 | Number of hatched larvae 7 days after insecticide delivery ([2]; 0.25 mg/L, Replicate 2): 13 | Hatching rate (%) ([2]; 0.5 mg/L, Replicate 1): 42.86% | Hatching rate (%) ([2]; 0.5 mg/L, Replicate 2): 45.07% | Number of hatched larvae 7 days after insecticide delivery ([2]; 0.5 mg/L, Replicate 1): 36 | Number of hatched larvae 7 days after insecticide delivery ([2]; 0.5 mg/L, Replicate 2): 39 | Hatching rate (%) ([2]; 1 mg/L, Replicate 1): 8.47% | Hatching rate (%) ([2]; 1 mg/L, Replicate 2): 7.46% | Number of hatched larvae 7 days after insecticide delivery ([2]; 1 mg/L, Replicate 1): 54 | Number of hatched larvae 7 days after insecticide delivery ([2]; 1 mg/L, Replicate 2): 62 | Hatching rate (%), Replicate 1 ([3]; 5 days after delivery, replicate 1): 9.77% | Hatching rate (%), Replicate 2 ([3]; 5 days after delivery, replicate 2): 10.23% | Hatching rate (%), Replicate 3 ([3]; 5 days after delivery, replicate 3): 10.16% | Number of hatched larvae 5 days after insecticide delivery, Replicate 1 ([3]; leaf disc, replicate 1): 13 | Number of hatched larvae 5 days after insecticide delivery, Replicate 2 ([3]; leaf disc, replicate 2): 9 | Number of hatched larvae 5 days after insecticide delivery, Replicate 3 ([3]; leaf disc, replicate 3): 13 | Number of hatched larvae 4 days after insecticide delivery, Replicate 1 ([4]; Harmonia axyridis egg cards, immersed 30 seconds, replicate 1): 17 | Number of hatched larvae 4 days after insecticide delivery, Replicate 2 ([4]; Harmonia axyridis egg cards, immersed 30 seconds, replicate 2): 14 | Number of hatched larvae 4 days after insecticide delivery, Replicate 3 ([4]; Harmonia axyridis egg cards, immersed 30 seconds, replicate 3): 12 | Hatching rate (%), Replicate 1 ([4]; Harmonia axyridis eggs, 4 days after delivery, replicate 1): 12.78% | Hatching rate (%), Replicate 2 ([4]; Harmonia axyridis eggs, 4 days after delivery, replicate 2): 13.73% | Hatching rate (%), Replicate 3 ([4]; Harmonia axyridis eggs, 4 days after delivery, replicate 3): 12.77%
